For 76 compounds, LC retention time results are on record in the RepoRT retention time repository (doi:10.1007/s11306-011-0298-z).

A short description of this data set: RP, Waters ACQUITY UPLC HSS T3, 100 × 2.1 mm, 1.8 µm, 30 °C, 0.3 mL/min, estimated dead time 0.73 min; A: water + 0.1% formic acid, pH 3; B: methanol + 0.1% formic acid, pH 3; gradient (min/%B) 0/0 6/0 56/100 60/100. The settings on record: stereoisomer not certain.
As to `CC(=O)NC1C(O)CC(O)(C(=O)O)OC1C(O)C(O)CO` (stereo unspecified) [N-Acetyl-neuraminic acid], the LC retention time is 1.5 min. The figure for `CC(=O)NC(Cc1ccc(O)cc1)C(=O)O` (stereo unspecified) [N-acetyl tyrosine] is 17.4 min. The figure for `CC(=O)NC1C(O)OC(CO)C(O)C1O` (stereo unspecified) [N-acetyl-galactosamine] is 1.49 min; for `O=C1CCC(=O)N1O` [N-hydroxysuccinimide] it is 2 min; for `N[C@@H](COP(=O)(O)O)C(=O)O` [O-phospho-L-serine] it is 1.21 min.

Turning to `Oc1ccc(C2Oc3cc(O)cc4c3C2c2cc(O)cc3c2C(c2cc(O)cc5c2C4C(c2ccc(O)cc2)O5)C(c2ccc(O)cc2)O3)cc1` (stereo unspecified) [a-viniferin], the LC retention time was 33 min. The figure for `CC(C=CC1(O)C(C)=CC(=O)CC1(C)C)=CC(=O)O` (stereo unspecified) [abscisic acid] is 31.3 min; for `CC(=O)NC(CS)C(=O)O` (stereo unspecified) [acetylcysteine] it is 8 min; for `Nc1ncnc2nc[nH]c12` [adenine*] it is 2.33 min. With `Nc1ncnc2c1ncn2C1OC(CO)C(O)C1OP(=O)(O)O` (stereo unspecified) [adenosine 2'-monophosphate] the figure was 10.9 min; with `O=C(O)CCCCC(=O)O` [adipic acid], 15.5 min. The figure for `OCC(O)C(O)C(O)CO` (stereo unspecified) [adonitol] is 1.38 min; for `OCC1OC(O)C(O)C(O)C1O` (stereo unspecified) [allose] it is 1.35 min; for `Cc1c(C)c2c(c(C)c1O)CCC(C)(CCCC(C)CCCC(C)CCCC(C)C)O2` (stereo not drawn) [alpha-tocopherol] it is 59.2 min.

In the case of `O=CC(O)C(O)C(O)C(O)CO` (stereo unspecified) [altrose], the LC retention time was 1.43 min. The figure for `Oc1ccc(C=C2c3cc(O)cc(O)c3C(c3ccc(O)cc3)C2c2cc(O)cc(O)c2)cc1` (stereo unspecified) [ampelopsin D + quadrangularin A] is 26.2 min; for `Oc1ccc(C2Oc3cc(O)c4c(c3C2c2cc(O)cc(O)c2)C2C(c3ccc(O)cc3)c3c(O)cc5c(c3C2C4c2ccc(O)cc2)C(c2cc(O)cc(O)c2)C(c2ccc(O)cc2)O5)cc1` (stereo unspecified) [ampelopsin H] it is 29.8 min; for `N#CC(OC1OC(COC2OC(CO)C(O)C(O)C2O)C(O)C(O)C1O)c1ccccc1` (stereo unspecified) [amygdalin] it is 19.3 min. With `COc1ccc(C=O)cc1` [anisaldehyde] the figure was 27.1 min; with `Nc1ccccc1C(=O)O` [anthranilic acid], 19.1 min. The figure for `O=c1cc(-c2ccc(O)cc2)oc2cc(OC3OC(CO)C(O)C(O)C3O)cc(O)c12` (stereo unspecified) [apigenin-7-O-glucoside] is 28.9 min; for `O=c1cc(-c2ccc(O)cc2)oc2cc(O)cc(O)c12` [apigenin] it is 37.1 min; for `O=c1cc(-c2ccc(O)cc2)oc2cc(OC3OC(CO)C(O)C(O)C3OC3OCC(O)(CO)C3O)cc(O)c12` (stereo unspecified) [apiin] it is 29.6 min.

Turning to `O=CC(O)C(O)C(O)CO` (stereo unspecified) [arabinose], the LC retention time is 1.41 min.

For `CCCCCC=CCC=CCC=CCC=CCCCC(=O)O` [arachidonic acid], the LC retention time is 53.5 min. The figure for `OCC1OC(Oc2ccc(O)cc2)C(O)C(O)C1O` (stereo unspecified) [arbutin] is 7.61 min. The figure for `OCC1OC(Oc2cc(O)cc(C=Cc3ccc(O)c(O)c3)c2)C(O)C(O)C1O` (stereo unspecified) [astringin] is 22.7 min.

In the case of `CC1=C(C=CC(C)O)C(C)(C)CCC1` (stereo unspecified) [b-ionol], the LC retention time was 46.3 min. Regarding `O=c1cc(-c2ccccc2)oc2cc(O)c(O)c(O)c12` [baicalein], the LC retention time is 36.6 min. With `CCCCCCCCCCCCCCCCCCCCCC(=O)O` [behenic acid] the figure was 58.7 min. With `O=C(O)c1ccccc1` [benzoic acid] the figure was 26.2 min; with `O=C(OCc1ccccc1)c1ccccc1` [benzyl benzoate], 43.5 min. With `O=C(O)c1ccc(O)cc1O` [beta-resorcylic acid] the figure was 19.6 min. For `C[N+](C)(C)CC(=O)[O-]` [betaine], the LC retention time is 1.38 min. With `C=C(C)C1CCC2(C(=O)O)CCC3(C)C(CCC4C5(C)CCC(O)C(C)(C)C5CCC43C)C12` (stereo unspecified) [betulinic acid] the figure was 53.2 min; with `C=CC1=C(C)C(=Cc2[nH]c(Cc3[nH]c(C=C4NC(=O)C(C)=C4C=C)c(C)c3CCC(=O)O)c(CCC(=O)O)c2C)NC1=O` [bilirubin], 56.4 min. With `O=C(O)CCCCC1SCC2NC(=O)NC21` (stereo unspecified) [biotin] the figure was 21.6 min. As for `NCCCCCN` [cadaverine], the LC retention time was 1.1 min. The figure for `O=C1CC(c2ccc(O)c(O)c2)c2c(cc(O)c3c2OC(c2ccc(O)c(O)c2)C(O)C3)O1` (stereo unspecified) [caffeic acid+catechin condensation product] is 26.1 min; for `Cn1c(=O)c2c(ncn2C)n(C)c1=O` [caffeine] it is 20.4 min; for `O=C(C=Cc1ccc(O)c(O)c1)OC(C(=O)O)C(O)C(=O)O` (stereo unspecified) [caftaric acid] it is 15.5 min. With `CC12CCC(CC1=O)C2(C)C` (stereo unspecified) [camphor] the figure was 36.5 min. The figure for `OCC1OC(OC2C(CO)OC(O)C(O)C2O)C(O)C(O)C1O` (stereo unspecified) [cellobiose] is 1.55 min; for `CC(CCC(=O)O)C1CCC2C3C(O)CC4CC(O)CCC4(C)C3CCC12C` (stereo unspecified) [chenodeoxycholic acid] it is 49.4 min.

Regarding `C=CC1CN2CCC1CC2C(O)c1ccnc2ccccc12` (stereo unspecified) [chinchonidine sulphate], the LC retention time was 19.1 min. The figure for `O=C(C=Cc1ccc(O)c(O)c1)OC1CC(O)(C(=O)O)CC(O)C1O` (stereo unspecified) [chlorogenic acid] is 18 min. With `CC(C)CCCC(C)C1CCC2C3CC=C4CC(O)CCC4(C)C3CCC12C` (stereo unspecified) [cholesterol] the figure was 60.2 min; with `CC(CCC(=O)O)C1CCC2C3C(O)CC4CC(O)CCC4(C)C3CC(O)C12C` (stereo unspecified) [cholic acid], 46.8 min. With `C[N+](C)(C)CCO` [choline] the figure was 1.4 min; with `O=c1cc(-c2ccccc2)oc2cc(O)cc(O)c12` [chrysin], 40.9 min; with `O=C(O)C=Cc1ccccc1` [cinnamic acid], 31.8 min. Consider `CCCCCCCC/C=C\CCCCCCCCCC(=O)O` [cis-11-eicosenoic acid], for which the LC retention time is 56.2 min.

With `O=C(O)C=C(CC(=O)O)C(=O)O` [cis-acotinic acid], the LC retention time is 4.4 min. With `OCC1OC(Oc2cc(O)cc(C=Cc3ccc(O)cc3)c2)C(O)C(O)C1O` (stereo not drawn) [cis-piceid], the LC retention time is 27.2 min. With `Oc1ccc(/C=C\c2cc(O)cc(O)c2)cc1` [cis-resveratrol] the figure was 30.4 min. In the case of `CC(O)(CC(=O)O)C(=O)O` (stereo unspecified) [citramalic acid], the LC retention time is 5.18 min. In the case of `O=C(O)CC(O)(CC(=O)O)C(=O)O` [citric acid], the LC retention time was 3.91 min. In the case of `COc1cc(C=CCO)ccc1O` [coniferyl alcohol], the LC retention time is 22.8 min. With `COc1cc(C=CC=O)ccc1O` [coniferyl aldehyde] the figure was 25.9 min; with `O=C(C=Cc1ccc(O)c(O)c1)OC1C(O)CC(O)(C(=O)O)CC1O` (stereo unspecified) [cryptochlorogenic acid], 20.1 min. The figure for `CC(C)c1ccc(C=O)cc1` [cuminaldehyde] is 38.6 min; for `OCC1OC(Oc2cc3c(O)cc(O)cc3[o+]c2-c2ccc(O)c(O)c2)C(O)C(O)C1O` (stereo unspecified) [cyanidin 3 galactoside] it is 22.1 min; for `OCC1OC(Oc2cc3c(OC4OC(CO)C(O)C(O)C4O)cc(O)cc3[o+]c2-c2ccc(O)c(O)c2)C(O)C(O)C1O` (stereo unspecified) [cyanidin-3,5-diglucoside] it is 18.4 min.

Turning to `Oc1cc(O)c2cc(OC3OCC(O)C(O)C3O)c(-c3ccc(O)c(O)c3)[o+]c2c1` (stereo unspecified) [cyanidin-3-arabinoside], the LC retention time is 23.1 min.

For `CC1OC(OCC2OC(Oc3cc4c(O)cc(O)cc4[o+]c3-c3ccc(O)c(O)c3)C(O)C(O)C2O)C(O)C(O)C1O` (stereo unspecified) [cyanidin-3-rutinoside], the LC retention time is 23.1 min. With `Oc1cc(O)c2cc(O)c(-c3ccc(O)c(O)c3)[o+]c2c1` [cyanidin], the LC retention time is 28.9 min. The figure for `O=c1c(-c2ccc(O)cc2)coc2cc(O)ccc12` [daidzein] is 32.5 min. With `CCCCCCCCCC(=O)O` [decanoic acid] the figure was 45.6 min; with `O=C1OC(C(O)CO)C(=O)C1=O` (stereo unspecified) [dehydroascorbic acid], 1.72 min. With `CC1OC(OCC2OC(Oc3cc4c(O)cc(O)cc4[o+]c3-c3cc(O)c(O)c(O)c3)C(O)C(O)C2O)C(O)C(O)C1O` (stereo unspecified) [delphinidin 3 rutinoside] the figure was 21.9 min; with `OCC1OC(Oc2cc3c(O)cc(O)cc3[o+]c2-c2cc(O)c(O)c(O)c2)C(O)C(O)C1O` (stereo unspecified) [delphinidin-3-glucoside], 20.9 min; with `O=c1cc2oc(-c3cc(O)c(O)c(O)c3)c(O)cc-2c(O)c1` [delphinidin], 27.1 min. As to `CC(CCC(=O)O)C1CCC2C3CCC4CC(O)CCC4(C)C3CC(O)C12C` (stereo unspecified) [deoxycholic acid], the LC retention time was 49.6 min. For the compound `CCNCC` [diethylamine], the LC retention time was 1.68 min. With `CC(=O)C=CC1C(C)CCCC1(C)C` (stereo not drawn) [dihidro alpha ionone] the figure was 46.1 min; with `O=C1c2c(O)cc(O)cc2OC(c2ccc(O)cc2)C1O` (stereo unspecified) [dihydrokaempferol], 27.8 min.
